System: Deroceras reticulatum
Test: Laboratory terraria barrier test on blotting paper (winter wheat seed hollowing, slug mortality)
Type: in vivo
Conditions: for slug mortality: barrier on blotting paper
Description: Plastic trays (0.07 m^2) were lined with unbleached blotting paper and saturated with de-ionised water. Three groups of eight winter wheat seeds were placed into each tray and each group surrounded with approximately 1-2 g of test material, forming a barrier with approximately 1 cm diameter. Four slugs (Deroceras reticulatum) pre-starved for 24-48 hours were introduced to the trays. The tests were performed under controlled conditions (12 hours light 15° C.: 12 hours dark 15° C., 90% humidity). Five replicates were prepared per condition.
The trays were observed daily, for seven days, for seed hollowing and mortality. After the seven days, the slugs were replaced with naive slugs and the test run for a further seven days. Mortality was indicated by failure to respond to 12-volt D.C. stimuli.
Note: i) In all the experiments, a negative control was prepared consisting of slugs only, sawdust only, or “alcoholic” sawdust. ii) Metaldehyde (4%) was used as a positive control, to compare the toxicity properties of the 100% plant raw materials, rather than as a physical barrier.
The method is identical to that used in Example 1 above.

`CC1OC(C)OC(C)OC(C)O1` (stereo not drawn) [metaldehyde (4%), metaldehyde] was tested. Which seed hollowing (barrier around winter wheat seeds on blotting paper, first seven days (days 1 to 7)) did it give?
The seed hollowing was 1%.

And the slug mortality (days 8 to 14)?
The slug mortality was 100%.

And the slug mortality (first seven days)?
The slug mortality was 90%.

From patent US20050163815A1, “Use of plant materials as a terrestrial molluscicidal and/or molloscrepellant agent” (priority 2002, published 2005)
